PubChem BioAssay AID248 (DTP/NCI, 2004)
Values joined by “and” are separate entries in the source; they are usually repeats but may differ in a detail not shown here. Equal values may be shown once. Inconclusive results and toxic doses are left out.

System: L1210 leukemia ip in BDF1 mice, survival T/C
Test: NCI In Vivo Anticancer Drug Screen. Data for tumor model L1210 Leukemia (intraperitoneal) in B6D2F1 (BDF1) mice
Conditions: endpoint: mean survival time, higher = longer survival
Outline: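 Transplanted-tumor mice were given test agent; controls received vehicle only. Survival readings from the two groups were divided (treated over control).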

[1] = dose: 100.0 mg/kg/injection, schedule: Q04DX003 (ip), vehicle: saline
[2] = dose: 200.0 mg/kg/injection, schedule: Q04DX003 (ip), vehicle: saline
[3] = dose: 400.0 mg/kg/injection, schedule: Q04DX003 (ip), vehicle: saline
[4] = dose: 100.0 mg/kg/injection, schedule: Q01DX001 (ip), vehicle: saline
[5] = dose: 200.0 mg/kg/injection, schedule: Q01DX001 (ip), vehicle: saline
[6] = dose: 400.0 mg/kg/injection, schedule: Q01DX001 (ip), vehicle: saline
[7] = dose: 12.5 mg/kg/injection, schedule: Q01DX009 (ip), vehicle: saline
[8] = dose: 25.0 mg/kg/injection, schedule: Q01DX009 (ip), vehicle: saline
[9] = dose: 50.0 mg/kg/injection, schedule: Q04DX003 (ip), vehicle: saline
[10] = dose: 200.0 mg/kg/injection, schedule: Q01DX001 (ip), vehicle: carboxymethylcellulose (CMC)
[11] = dose: 100.0 mg/kg/injection, schedule: Q04DX003 (ip), vehicle: Klucel (hydroxypropylcellulose) (HPC)
[12] = dose: 200.0 mg/kg/injection, schedule: Q04DX003 (ip), vehicle: Klucel (hydroxypropylcellulose) (HPC)
[13] = dose: 400.0 mg/kg/injection, schedule: Q04DX003 (ip), vehicle: Klucel (hydroxypropylcellulose) (HPC)

For `ClCC1COC(Cc2ccccc2)O1` (centres undefined), the T/C (dose: 222.0 mg/kg/injection, schedule: Q01DX Z (ip), vehicle: saline) was 97 % of control, the T/C (dose: 333.0 mg/kg/injection, schedule: Q01DX Z (ip), vehicle: saline) was 97 % of control and the T/C (dose: 500.0 mg/kg/injection, schedule: Q01DX Z (ip), vehicle: saline) was 103 % of control.

`COc1ccc(Cl)cc1NC(=O)C(Br)C(Br)C(=O)O` (centres undefined) was tested, and the T/C (dose: 100.0 mg/kg/injection, schedule: Q01DX009 (ip), vehicle: other) was 96 % of control and the T/C (dose: 200.0 mg/kg/injection, schedule: Q01DX009 (ip), vehicle: other) was 100 % of control.

`O=C(c1ccccc1Cl)c1cccc2ccccc12` was tested, and the T/C [1] was 115 % of control, the T/C [2] was 100 % of control and the T/C [3] was 106 % of control.

In the case of `CC(=O)OCCC/C(=C/c1ccc2c(c1)OCO2)[N+](=O)[O-]`, the T/C [4] was 104 % of control, the T/C [5] was 101 % of control and the T/C [6] was 98 % of control.

With `CC1(C)NC(=O)N(CN2CCN(CN3C(=O)NC(C)(C)C3=O)CC2)C1=O` the T/C [1] was 108 % of control, the T/C [2] was 108 % of control and the T/C [3] was 113 % of control.

In the case of `CS(=O)(=O)c1nc(N)nc2nc[nH]c12`, the T/C (dose: 7.5 mg/kg/injection, schedule: Q01DX Z (ip), vehicle: methylcellulose (MC)) was 95 % of control, the T/C (dose: 10.0 mg/kg/injection, schedule: Q01DX001 (ip), vehicle: carboxymethylcellulose (CMC)) was 101 % of control and the T/C [7] was 109 % of control. For the same molecule, the T/C (dose: 15.0 mg/kg/injection, schedule: Q01DX Z (ip), vehicle: methylcellulose (MC)) was 115 % of control, the T/C [8] was 100 % of control and the T/C (dose: 30.0 mg/kg/injection, schedule: Q01DX Z (ip), vehicle: methylcellulose (MC)) was 117 % of control. For the same molecule, the T/C (dose: 50.0 mg/kg/injection, schedule: Q01DX001 (ip), vehicle: saline) was 95 % of control, the T/C (dose: 50.0 mg/kg/injection, schedule: Q01DX009 (ip), vehicle: saline) was 102 % of control and the T/C [9] was 98 % of control. The T/C (dose: 60.0 mg/kg/injection, schedule: Q01DX Z (ip), vehicle: carboxymethylcellulose (CMC)) was 119 % of control, the T/C (dose: 60.0 mg/kg/injection, schedule: Q01DX Z (ip), vehicle: methylcellulose (MC)) was 123 % of control and the T/C (dose: 75.0 mg/kg/injection, schedule: Q01DX Z (ip), vehicle: methylcellulose (MC)) was 120 % of control. For the same molecule, the T/C [4] was 101 % of control, the T/C (dose: 100.0 mg/kg/injection, schedule: Q01DX009 (ip), vehicle: saline) was 97 % of control and the T/C [1] was 93 % of control. The T/C [10] was 100 % of control, the T/C [5] was 117 % of control and the T/C (dose: 200.0 mg/kg/injection, schedule: Q01DX009 (ip), vehicle: saline) was 103 % of control. The T/C [2] was 98 % of control.

With `O=C1/C(=C/c2ccco2)CCC/C1=C\c1ccco1` the T/C (dose: 100.0 mg/kg/injection, schedule: Q01DX001 (ip), vehicle: acetone) was 95 % of control, the T/C (dose: 100.0 mg/kg/injection, schedule: Q04DX002 (ip), vehicle: saline with Tween-80) was 92 % of control and the T/C (dose: 200.0 mg/kg/injection, schedule: Q01DX001 (ip), vehicle: acetone) was 87 % of control. The T/C (dose: 200.0 mg/kg/injection, schedule: Q04DX002 (ip), vehicle: saline with Tween-80) was 95 % of control, the T/C (dose: 400.0 mg/kg/injection, schedule: Q01DX001 (ip), vehicle: acetone) was 97 % of control and the T/C (dose: 400.0 mg/kg/injection, schedule: Q04DX002 (ip), vehicle: saline with Tween-80) was 98 % of control.

For `CCCCNC(=O)Nc1ncn[nH]1`, the T/C (dose: 75.0 mg/kg/injection, schedule: Q01DX001 (ip), vehicle: carboxymethylcellulose (CMC)) was 103 % of control, the T/C (dose: 150.0 mg/kg/injection, schedule: Q01DX001 (ip), vehicle: carboxymethylcellulose (CMC)) was 104 % of control and the T/C (dose: 300.0 mg/kg/injection, schedule: Q01DX001 (ip), vehicle: carboxymethylcellulose (CMC)) was 97 % of control.

In the case of `Nc1ccn(C2OC(CO)C(O)C2O)c(=NCC(=O)O)n1` (centres undefined), the T/C (dose: 100.0 mg/kg/injection, schedule: Q01DX005 (ip), vehicle: saline) was 120 % of control and the T/C (dose: 200.0 mg/kg/injection, schedule: Q01DX005 (ip), vehicle: saline) was 122 % of control.

With `O=C(Nc1ccc(Cl)c([N+](=O)[O-])c1)Oc1ccccc1F` the T/C (dose: 100.0 mg/kg/injection, schedule: Q01DX009 (ip), vehicle: Klucel (hydroxypropylcellulose) (HPC)) was 92 % of control, the T/C [11] was 97 % of control and the T/C (dose: 200.0 mg/kg/injection, schedule: Q01DX009 (ip), vehicle: Klucel (hydroxypropylcellulose) (HPC)) was 101 % of control. For the same molecule, the T/C [12] was 97 % of control and the T/C [13] was 96 % of control.

`CCOC(=O)c1cccc2ccc[n+](C)c12` was tested, and the T/C (dose: 37.5 mg/kg/injection, schedule: Q04DX003 (ip), vehicle: saline) was 91 % of control, the T/C (dose: 75.0 mg/kg/injection, schedule: Q01DX001 (ip), vehicle: saline) was 97 % of control and the T/C (dose: 75.0 mg/kg/injection, schedule: Q04DX003 (ip), vehicle: saline) was 91 % of control. For the same molecule, the T/C (dose: 150.0 mg/kg/injection, schedule: Q01DX001 (ip), vehicle: saline) was 97 % of control and the T/C (dose: 150.0 mg/kg/injection, schedule: Q04DX003 (ip), vehicle: saline) was 95 % of control.

With `COc1ccn(C)c(=O)n1` the T/C [7] was 112 % of control, the T/C (dose: 12.5 mg/kg/injection, schedule: Q04DX003 (ip), vehicle: saline) was 110 % of control and the T/C [8] was 93 % of control. For the same molecule, the T/C (dose: 25.0 mg/kg/injection, schedule: Q04DX003 (ip), vehicle: saline) was 91 % of control and the T/C [9] was 96 % of control.

With `NC(=O)N1Cc2ccccc2CCc2ccccc2C1` the T/C [11] was 98 % of control and the T/C [13] was 91 % of control.

For `CCCCC(=O)C(CCC)C(=O)Nc1ccccc1` (centres undefined), the T/C (dose: 50.0 mg/kg/injection, schedule: Q04DX003 (ip), vehicle: Klucel (hydroxypropylcellulose) (HPC)) was 98 % of control, the T/C (dose: 100.0 mg/kg/injection, schedule: Q01DX001 (ip), vehicle: carboxymethylcellulose (CMC)) was 100 % of control and the T/C [11] was 94 % of control and 98 % of control. For the same molecule, the T/C [10] was 91 % of control, the T/C [12] was 96 % of control and 98 % of control and the T/C (dose: 400.0 mg/kg/injection, schedule: Q01DX001 (ip), vehicle: carboxymethylcellulose (CMC)) was 91 % of control. The T/C [13] was 98 % of control.

With `CN1c2ccc(Br)c[c]2[Sn]2([c]3cc(Br)ccc31)[c]1cc(Br)ccc1N(C)c1ccc(Br)c[c]12` the T/C (dose: 100.0 mg/kg/injection, schedule: Q01DX001 (ip), vehicle: steriod suspending solution) was 104 % of control, the T/C (dose: 200.0 mg/kg/injection, schedule: Q01DX001 (ip), vehicle: steriod suspending solution) was 107 % of control and the T/C (dose: 400.0 mg/kg/injection, schedule: Q01DX001 (ip), vehicle: steriod suspending solution) was 109 % of control.

With `COc1ccc(/C=N/NC(=O)c2ccc(OC)cc2)cc1` the T/C [11] was 101 % of control, the T/C [12] was 90 % of control and the T/C [13] was 92 % of control.

For `O=C1C=CC(=O)C(SCC(O)CO)=C1` (centres undefined), the T/C (dose: 9.5 mg/kg/injection, schedule: Q01DX001 (ip), vehicle: other) was 94 % of control, the T/C (dose: 19.0 mg/kg/injection, schedule: Q01DX001 (ip), vehicle: other) was 95 % of control and the T/C (dose: 38.0 mg/kg/injection, schedule: Q01DX001 (ip), vehicle: other) was 100 % of control.

For `O=NN(CCF)C(=O)NC1CCC(C(=O)O)CC1` (centres undefined), the T/C (dose: 4.0 mg/kg/injection, schedule: Q01DX001 (ip), vehicle: saline with Tween-80) was 105 % of control and 106 % of control, the T/C (dose: 6.0 mg/kg/injection, schedule: Q01DX001 (ip), vehicle: saline with Tween-80) was 108 % of control and the T/C (dose: 9.0 mg/kg/injection, schedule: Q01DX001 (ip), vehicle: saline with Tween-80) was 116 % of control and 119 % of control. The T/C (dose: 13.0 mg/kg/injection, schedule: Q01DX001 (ip), vehicle: saline with Tween-80) was 117 % of control, the T/C (dose: 20.0 mg/kg/injection, schedule: Q01DX001 (ip), vehicle: saline with Tween-80) was 152 % of control and the T/C (dose: 30.0 mg/kg/injection, schedule: Q01DX001 (ip), vehicle: saline with Tween-80) was 263 % of control and 206 % of control. For the same molecule, the T/C (dose: 45.0 mg/kg/injection, schedule: Q01DX001 (ip), vehicle: saline with Tween-80) was 306 % of control and 432 % of control and the T/C (dose: 66.0 mg/kg/injection, schedule: Q01DX001 (ip), vehicle: saline with Tween-80) was 500 % of control.

For `CCNC(=O)c1ccc2c(c1NCC)C(=O)c1ccccc1C2=O`, the T/C (dose: 75.0 mg/kg/injection, schedule: Q01DX001 (ip), vehicle: acetone) was 98 % of control, the T/C (dose: 150.0 mg/kg/injection, schedule: Q01DX001 (ip), vehicle: acetone) was 104 % of control and the T/C (dose: 300.0 mg/kg/injection, schedule: Q01DX001 (ip), vehicle: acetone) was 104 % of control.

`COC(=O)c1nc2c(N)nc(-c3ccccc3)nc2nc1N` was tested, and the T/C [11] was 103 % of control, the T/C [12] was 98 % of control and the T/C [13] was 106 % of control.

For `O=C(N=P(c1ccccc1)(c1ccccc1)c1ccccc1)c1ccccc1`, the T/C [4] was 94 % of control, the T/C [5] was 100 % of control and the T/C [6] was 96 % of control.
